What was measured:
[1] = system: Psudomonas aeruginosa (ATCC 15442); assay: Time-Kill; format: cell-based, Pseudomonas aeruginosa; conditions: 100 ppm active
Method: (§1) Formulation 11-1 was prepared as described above and evaluated at two different concentrations against various microorganisms to determine the time required to kill certain levels of the microorganisms. Control formulation 11-2 was also tested in this assay at the same concentrations.
(§2) Preparation: Transfer each organism from stock slant to sterile Nutrient Broth (NB) tube. Incubate NB tubes at 36±1° C. After 24 hours incubation, subculture each broth culture to fresh tube of sterile NB. Repeat subculturing procedure at 24 hour intervals. Use cultures for testing after at least three consecutive 24 hour subculturings.
(§3) 2. Dispense 4.9 gram aliquots of each sample* into sterile medication tubes. Use one tube per organism. (*log10 reductions can be calculated by subtracting the log10 of the average inoculum count from the log10 of the test substance count after 30 seconds, 1 minute or 5 minutes contact)
(§4) 3. Centrifuge 18-24 hour broth culture of each test organism. Decant supernatant and re-suspend in equal volume of phosphate buffer. Re-centrifuge and re-suspend in phosphate buffer. Prepare 1:10 dilution of each culture suspension by adding 2 ml of culture to 18 ml of phosphate buffer. Mix by vortexing. Use this 1:10 dilution as the test inoculum.
(§5) 4. Perform initial plate count of the test inoculum by adding 0.1 ml of the inoculum to 4.9 grams of sterile distilled water. Vortex to mix, then remove 1 ml of solution and dilute in D/E Broth to 1:100,000. Plate 1:1,000, 1:10,000, and 1:100,000 dilutions in Microbial Content Agar (Difco).
(§6) 5. Begin testing of substances by adding 0.1 ml of test inoculum to sample tube. Vortex to mix. After 30 seconds, remove 1 ml of sample and add to 9 mls of DE broth, rinse pipette 5 times with sample and vortex. Remove additional 1 ml sample after 1 and 5 minutes contact and add to 9 mls of D/E Broth. Dilute each tube to 1:10,000 in D/E Broth and plate 1:1,000, 1:10,000, and 1:100,000 dilutions in Microbial Content Agar.
(§7) 7. After completion of step 6, perform final plate count of inoculum suspension by adding 0.1 ml of the suspension to 4.9 grams of sterile distilled water. Vortex to mix then remove 1 ml of solution and dilute in D/E Broth to 1:100,000. Plate 1:1,000, 1:10,000, and 1:100,000 dilutions in Microbial Content Agar (Difco).
(§8) 8. Incubate plates at 36±1° C. for 48 hours.
(§9) 9. Record all test results and calculate percent kills* after 30 seconds, 1 minute, and 5 minutes contact as follows: (*log10 reductions can be calculated by subtracting the log10 of the average inoculum count from the log10 of the test substance count after 30 seconds, 1 minute or 5 minutes contact) [formula]
(§10) X=Average of initial and final inoculum control counts, org/ml (Note: The difference between initial and final inoculum counts must be≦1 log for a valid study)
(§11) Y=Test substance bacterial count as org/ml after 30 seconds, 1 minute, or 5 minutes contact

Pa (ATCC 9027) = assay: Time-Kill; format: cell-based, Pseudomonas aeruginosa; conditions: 50 ppm active
Method: as §1, §2, §3, §4, §5, §6, §7, §8, §9, §10, §11

[2] = system: Aspergillus niger (ATCC 6275); assay: Time-Kill; format: cell-based; conditions: 100 ppm active
Method: as §1, §2, §3, §4, §5, §6, §7, §8, §9, §10, §11

[3] = system: Candida albicans (ATCC 10231); assay: Time-Kill; format: cell-based; conditions: 100 ppm active
Method: as §1, §2, §3, §4, §5, §6, §7, §8, §9, §10, §11

[4] = system: Staphylococcus aureus (ATCC 6538); assay: Time-Kill; format: cell-based; conditions: 100 ppm active
Method: as §1, §2, §3, §4, §5, §6, §7, §8, §9, §10, §11

[5] = system: Escherichia coli (ATCC 11229); assay: Time-Kill; format: cell-based; conditions: 100 ppm active
Method: as §1, §2, §3, §4, §5, §6, §7, §8, §9, §10, §11

[6] = system: Staphylococcus aureus (ATCC 6538); assay: Minimum Inhibitory Concentration test, bacteriostatic responses; format: cell-based; conditions: for Bacteriostatic response S. aureus: triplicate; for Minimum Inhibitory Concentration S. aureus: lowest concentration completely inhibiting growth in all three replicates
Method: (§12) [table] [table] Add 0.1 ml of inoculum to each 20×150 mm test tube containing 9.0 ml of Nutrient or Sabouraud Dextrose Broth and 1 ml of a aqueous dilution of the test sample. Vortex tube to mix then incubate bacteria inoculated tubes at 36±1° C. for a minimum of 48±1 hour and fungi inoculated tubes at 28° C. for 7-10 days. Following incubation, observe tubes visually for the presence of growth (i.e. turbidity). Perform all testing in triplicate.

[7] = system: Escherichia coli (ATCC 11229); assay: as above; format: cell-based; conditions: for Bacteriostatic response E. coli: triplicate; for Minimum Inhibitory Concentration E. coli: lowest concentration completely inhibiting growth in all three replicates
Method: as §12

[8] = system: Pseudomonas aeruginosa (ATCC 15442); assay: as above; format: cell-based; conditions: for Bacteriostatic response P. aeruginosa: triplicate; for Minimum Inhibitory Concentration P. aeruginosa: lowest concentration completely inhibiting growth in all three replicates
Method: as §12

[9] = system: Candida albicans (ATCC 10231); assay: Minimum Inhibitory Concentration test, fungistatic responses; format: cell-based; conditions: for Fungistatic response C. albicans: triplicate; for Minimum Inhibitory Concentration C. albicans: lowest concentration completely inhibiting growth in all three replicates
Method: as §12

[10] = system: Aspergillus niger (ATCC 16404); assay: as above; format: cell-based; conditions: for Fungistatic response A. niger: triplicate; for Minimum Inhibitory Concentration A. niger: lowest concentration completely inhibiting growth in all three replicates
Method: as §12

[11] = Surface tension measurement; format: physicochemical; conditions: 0.1% surfactant blend in water
Text: (§13) In the following examples, all amounts are stated in percent by weight of active material unless indicated otherwise. Surface tension measurements, Draves wetting measurements, and Ross Miles foaming initial and final measurements all were taken at 0.1% concentration of the surfactant blend in water.

[12] = Ross Miles foaming, initial and final; format: physicochemical; conditions: 0.1% in water
Text: as §13

[13] = Draves wetting measurement; format: physicochemical; conditions: 0.1% in water
Text: as §13

For “N-Alkyl dimethyl benzyl ammonium chloride [BTC 65NF]”, the “Percent Kill Pa” value ([1]; 5 Minutes contact) was 99.9 % K, the “Percent Kill Pa” value ([1]; 30 Seconds contact) was 99.9 % K and the “Percent Kill Pa” value ([1]; 60 Seconds contact) was 99.9 % K. The “Percent Kill Pa (ATCC 9027)” value (Pa (ATCC 9027); 5 Minutes contact) was over 99.9 % K, the “Percent Kill Pa (ATCC 9027)” value (Pa (ATCC 9027); 30 Seconds contact) was 99.9 % K and the “Percent Kill Pa (ATCC 9027)” value (Pa (ATCC 9027); 60 Seconds contact) was over 99.9 % K. The “Percent Kill An” value ([2]; 5 Minutes contact) was 92.3 % K, the “Percent Kill An” value ([2]; 30 Seconds contact) was 0.0 % K and the “Percent Kill An” value ([2]; 60 Seconds contact) was 22.5 % K. For the same molecule, the “Percent Kill Ca” value ([3]; 5 Minutes contact) was over 99.7 % K, the “Percent Kill Ca” value ([3]; 30 Seconds contact) was over 99.7 % K and the “Percent Kill Ca” value ([3]; 60 Seconds contact) was over 99.7 % K. For the same molecule, the “Percent Kill Sa” value ([4]; 5 Minutes contact) was over 99.8 % K, the “Percent Kill Sa” value ([4]; 30 Seconds contact) was 65.5 % K and the “Percent Kill Sa” value ([4]; 60 Seconds contact) was 83.6 % K. For the same molecule, the “Percent Kill Ec” value ([5]; 5 Minutes contact) was over 99.9 % K, the “Percent Kill Ec” value ([5]; 30 Seconds contact) was over 99.9 % K and the “Percent Kill Ec” value ([5]; 60 Seconds contact) was over 99.9 % K. For the same molecule, the “Bacteriostatic response S. aureus” value ([6]; 1 ppm active) was 000, the “Bacteriostatic response S. aureus” value ([6]; 10 ppm active) was 000 and the “Bacteriostatic response S. aureus” value ([6]; 100 ppm active) was 000. For the same molecule, the “Bacteriostatic response S. aureus” value ([6]; 1000 ppm active) was 000, the “Minimum Inhibitory Concentration S. aureus” value [6] was <1 ppm, active and the “Bacteriostatic response E. coli” value ([7]; 10 ppm active) was 000. For the same molecule, the “Bacteriostatic response E. coli” value ([7]; 100 ppm active) was 000, the “Bacteriostatic response E. coli” value ([7]; 1000 ppm active) was 000 and the “Minimum Inhibitory Concentration E. coli” value [7] was 10 ppm, active. For the same molecule, the “Bacteriostatic response P. aeruginosa” value ([8]; 100 ppm active) was 000, the “Bacteriostatic response P. aeruginosa” value ([8]; 1000 ppm active) was 000 and the “Minimum Inhibitory Concentration P. aeruginosa” value [8] was 100 ppm, active. The “Fungistatic response C. albicans” value ([9]; 10 ppm active) was 000, the “Fungistatic response C. albicans” value ([9]; 100 ppm active) was 000 and the “Fungistatic response C. albicans” value ([9]; 1000 ppm active) was 000. The “Minimum Inhibitory Concentration C. albicans” value [9] was 10 ppm, active, the “Fungistatic response A. niger” value ([10]; 10 ppm active) was 000 and the “Fungistatic response A. niger” value ([10]; 100 ppm active) was 000. The “Fungistatic response A. niger” value ([10]; 1000 ppm active) was 000 and the “Minimum Inhibitory Concentration A. niger” value [10] was 10 ppm, active.

For `CCCCCCCCS(=O)(=O)[O-].[Na+]` [BIO-TERGE PAS-8S, Sodium 1-octane sulfonate], the “Minimum Inhibitory Concentration S. aureus” value [6] was >1000 ppm, active, the “Minimum Inhibitory Concentration E. coli” value [7] was >1000 ppm, active and the “Minimum Inhibitory Concentration P. aeruginosa” value [8] was >1000 ppm, active. For the same molecule, the “Minimum Inhibitory Concentration C. albicans” value [9] was >1000 ppm, active and the “Minimum Inhibitory Concentration A. niger” value [10] was >1000 ppm, active.

With `CCCCCCCCCC[N+](C)(C)C.[Cl-]` [QC10, Decyltrimethylammonium chloride] the “Surface Tension” value [11] was 39.28 mN/m, the “Foaming Final” value [12] was 0/0 cm and the “Foaming Initial” value [12] was 0/0 cm. For the same molecule, the Wetting [13] was 100 s.

In the case of `CCCCCCCCCCCC[N+](C)(C)[O-]` [AMMONYX-LO, Lauramine oxide], the “Bacteriostatic response S. aureus” value ([6]; 100 ppm active) is reported as 000, the “Bacteriostatic response S. aureus” value ([6]; 1000 ppm active) is reported as 000 and the “Minimum Inhibitory Concentration S. aureus” value [6] is reported as 100 ppm, active. The “Bacteriostatic response E. coli” value ([7]; 1000 ppm active) was 000, the “Minimum Inhibitory Concentration E. coli” value [7] was 1000 ppm, active and the “Minimum Inhibitory Concentration P. aeruginosa” value [8] was >1000 ppm, active. For the same molecule, the “Fungistatic response C. albicans” value ([9]; 100 ppm active) was 000, the “Fungistatic response C. albicans” value ([9]; 1000 ppm active) was 000 and the “Minimum Inhibitory Concentration C. albicans” value [9] was 100 ppm, active. For the same molecule, the “Fungistatic response A. niger” value ([10]; 100 ppm active) was 000, the “Fungistatic response A. niger” value ([10]; 1000 ppm active) was 000 and the “Minimum Inhibitory Concentration A. niger” value [10] was 100 ppm, active.

In the case of Cocamidopropyl betaine [Amphosol ® CA], the “Surface Tension” value [11] is reported as 36.75 mN/m, the “Foaming Final” value [12] is reported as 12.9 cm and the “Foaming Initial” value [12] is reported as 13 cm. For the same molecule, the Wetting [13] was 100 s.
